Data from patent US6921810B2, “Bifunctional antibiotics” (The Scripps Research Institute, priority 2000, dated 2005).
pKd, pKi: −log10 of the molar value. In brackets after ≈: the same amount, converted by molar mass.

Tests used:
[1] = molecular target: APH(3′)-IIIa (Enterococcus faecalis, UniProt P0A3Y5); assay: Aminoglycoside-modifying enzyme kinetics, APH(3′)-IIIa; format: biochemical; conditions: in words
Description: (§1) They were in fact potent competitive inhibitors of the APH(2″) activity, Kis=0.8 μM for dimer 4, 0.1 μM for 6 and 0.7 μM for 27.
(§2) BF refers to the bifunctional enzyme AAC(6′)-APH(2″), where the particular activity is indicated. The neamine data were obtained from Daigle, D. M.; et al. Chem. Biol. 1999, 6, 99.

[2] = test system: E. coli ATCC 25922; assay: Antimicrobial testing (MIC, NCCLS M7-A4); format: cell-based; conditions: Escherichia coli, ATCC25922; E. coli reference strain
Description: (§3) Antimicrobial Testing: The Kirby-Bauer Disk assay was performed as previously described (Hendrix, M.; et al. J. Am. Chem. Soc. 1997, 119, 3641; Phillips, I.; Williams, D. In Laboratory Methods in Antimicrobial Chemotherapy; Gerrod, L., Ed.; Churchill Livingstone Press: Edinburg, 1978; pp 3-30). Reference strains E. coli ATCC 25922 and S. aureus ATCC 25923 were obtained as lyophilized pellets (Difco). MIC testing was performed as recommended in the NCCLS Publication M7-A4.

[3] = molecular target: AAC(6′)-Ii (Enterococcus faecium, UniProt Q47764); assay: Aminoglycoside-modifying enzyme kinetics, AAC(6′)-Ii; format: biochemical; conditions: in words
Description: as §1, §2

[4] = molecular target: AAC(6′) activity of AAC(6′)-APH(2″) (Staphylococcus aureus, UniProt P0A0C1); assay: Aminoglycoside-modifying enzyme kinetics, AAC(6′) activity of the bifunctional enzyme; format: biochemical; conditions: in words
Description: as §1, §2

[5] = molecular target: APH(2″) activity of AAC(6′)-APH(2″) (Staphylococcus aureus, UniProt P0A0C1); assay: Aminoglycoside-modifying enzyme kinetics, APH(2″) activity of the bifunctional enzyme; format: biochemical; conditions: for substrate for APH(2″) activity: in words
Description: as §1, §2

[6] = test system: E. coli 16S rRNA A-site (AS-wt); assay: Surface plasmon resonance binding to immobilized biotinylated A-site rRNA; conditions: SPR; for pKd: AS-wt; for affinity for AS-wt relative to neamine: compared with neamine
Description: The dissociation constant (Kd) and binding stoichiometry were determined using surface plasmon resonance (SPR) against an immobilized rRNA sequence modeling the A-site of prokaryotic rRNA (FIGS. 1-4) (Hendrix, M.; et al. J. Am. Chem. Soc. 1997, 119, 3641; Wong, C.-H.; et al. Chem. Biol. 1998, 5, 397). […] We focused on neamine as it represents the simplest effective aminoglycoside antibiotic and contains the key β-hydroxyamine motif for interaction with the phosphodiester group and the Hoogsteen face of guanine residues in RNA (FIG. 2) (Hendrix, M.; et al. Angew. Chem., Int. Ed. Engl. 1997, 36, 95). […] Various dimers of neamine were therefore constructed in order to identify a bivalent aminoglycoside that would bind AS-wt with high affinity (FIG. 4), and at the same time resist and/or inhibit the modifying enzymes due to its unnatural structure (Some aminoglycoside dimers were prepared previously; however, the monomers bind the A-site stoichiometrically: see Michael; K.; et al. Bioorg. Med. Chem. 1999, 7, 1361; for vancomycin dimers, see Rao, J.; Whitesides, G. H. J. Am. Chem. Soc. 1997, 119, 10286; Sundram, U. N.; et al. J. Am. Chem. Soc. 1996, 118, 13107).
Reactions were performed under inert atmosphere unless otherwise stated. THF and CH2Cl2 were distilled under Ar with benzophenone ketyl and CaH2, respectively. NMR spectra were obtained on a Bruker AMX-400. The sites of enzymatic modification of neomycin and gentamicin that cause drug resistance are shown in FIG. 1 (Daigle, D. M.; et al. Chem. Biol. 1999, 6, 99). Synthesis of biotinylated RNAs and surface plasmon resonance experiments were performed as previously described and Kd values were also calculated as previously described (FIG. 2) (Hendrix, M.; et al. J. Am. Chem. Soc. 1997, 119, 3641).

[7] = test system: P. aeruginosa, PAO-1; assay: Antibiotic activity against other strains; format: cell-based; conditions: in words
Description: as §3

[8] = test system: E. faecalis ATCC 29212; assay: Antibiotic activity against other strains; format: cell-based; conditions: in words
Description: as §3

[9] = test system: S. aureus ATCC 33591-MRSA; assay: Antibiotic activity against other strains; format: cell-based; conditions: in words
Description: as §3

[10] = test system: S. aureus ATCC 29213; assay: Antibiotic activity against other strains; format: cell-based; conditions: in words
Description: as §3

[11] = test system: P. aeruginosa ATCC 27853; assay: Antibiotic activity against other strains; format: cell-based; conditions: in words
Description: as §3

[12] = test system: tobramycin-resistant strain of P. aeruginosa from cystic fibrosis patients; assay: Antibiotic activity against a tobramycin-resistant strain; format: cell-based; conditions: compared with tobramycin
[13] = test system: CN(CCCCN(C)CC(O)COC1C(O)C(N)CC(N)C1OC1OC(CN)C(O)C(O)C1N)CC(O)COC1C(O)C(N)CC(N)C1OC1OC(CN)C(O)C(O)C1N; assay: Km as substrate for the AAC(6′) acetyltransferase activity of the bifunctional enzyme AAC(6′)-APH(2″) (BF); format: biochemical; conditions: other: acetyltransferase activity of the bifunctional enzyme (BF)
Description: as §1, §2

[14] = test system: NCC1OC(OC2C(N)CC(N)C(O)C2OCC(=O)NCCCCCNC(=O)COC2C(O)C(N)CC(N)C2OC2OC(CN)C(O)C(O)C2N)C(N)C(O)C1O; assay: as above; format: biochemical; conditions: other: acetyltransferase activity of the bifunctional enzyme (BF)
Description: as §1, §2

[15] = test system: NCC1OC(OC2C(N)CC(N)C(O)C2OCC(=O)NCCCNC(=O)COC2C(O)C(N)CC(N)C2OC2OC(CN)C(O)C(O)C2N)C(N)C(O)C1O; assay: as above; format: biochemical; conditions: other: acetyltransferase activity of the bifunctional enzyme (BF)
Description: as §1, §2

[16] = test system: CN(CCCCN(C)CC(O)COC1C(O)C(N)CC(N)C1OC1OC(CN)C(O)C(O)C1N)CC(O)COC1C(O)C(N)CC(N)C1OC1OC(CN)C(O)C(O)C1N; assay: Km as substrate for AAC(6′)-Ii (6′-N-acetylation); format: biochemical; conditions: other: 6′-N-acetylation
Description: as §1, §2

[17] = test system: NCC1OC(OC2C(N)CC(N)C(O)C2OCC(=O)NCCCCCNC(=O)COC2C(O)C(N)CC(N)C2OC2OC(CN)C(O)C(O)C2N)C(N)C(O)C1O; assay: Km as substrate for AAC(6′)-Ii (6′-N-acetylation); format: biochemical; conditions: other: 6′-N-acetylation
Description: as §1, §2

[18] = test system: NCC1OC(OC2C(N)CC(N)C(O)C2OCC(=O)NCCCNC(=O)COC2C(O)C(N)CC(N)C2OC2OC(CN)C(O)C(O)C2N)C(N)C(O)C1O; assay: Km as substrate for AAC(6′)-Ii (6′-N-acetylation); format: biochemical; conditions: other: 6′-N-acetylation
Description: as §1, §2

[19] = test system: CN(CCCCN(C)CC(O)COC1C(O)C(N)CC(N)C1OC1OC(CN)C(O)C(O)C1N)CC(O)COC1C(O)C(N)CC(N)C1OC1OC(CN)C(O)C(O)C1N; assay: Km as substrate for APH(3′)-IIIa (3′-O-phosphorylation); format: biochemical; conditions: other: 3′-O-phosphorylation
Description: as §1, §2

[20] = test system: NCC1OC(OC2C(N)CC(N)C(O)C2OCC(=O)NCCCCCNC(=O)COC2C(O)C(N)CC(N)C2OC2OC(CN)C(O)C(O)C2N)C(N)C(O)C1O; assay: as above; format: biochemical; conditions: other: 3′-O-phosphorylation
Description: as §1, §2

[21] = test system: NCC1OC(OC2C(N)CC(N)C(O)C2OCC(=O)NCCCNC(=O)COC2C(O)C(N)CC(N)C2OC2OC(CN)C(O)C(O)C2N)C(N)C(O)C1O; assay: as above; format: biochemical; conditions: other: 3′-O-phosphorylation
Description: as §1, §2

Chain of AAC(6′)-Ii (Q47764 entry or part of it): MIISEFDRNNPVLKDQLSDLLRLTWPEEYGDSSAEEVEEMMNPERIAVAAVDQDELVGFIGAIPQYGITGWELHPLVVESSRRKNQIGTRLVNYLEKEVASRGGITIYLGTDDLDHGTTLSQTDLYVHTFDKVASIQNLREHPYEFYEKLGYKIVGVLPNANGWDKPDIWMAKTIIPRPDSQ
Chain of AAC(6′) activity of AAC(6′)-APH(2″) (P0A0C1 whole entry): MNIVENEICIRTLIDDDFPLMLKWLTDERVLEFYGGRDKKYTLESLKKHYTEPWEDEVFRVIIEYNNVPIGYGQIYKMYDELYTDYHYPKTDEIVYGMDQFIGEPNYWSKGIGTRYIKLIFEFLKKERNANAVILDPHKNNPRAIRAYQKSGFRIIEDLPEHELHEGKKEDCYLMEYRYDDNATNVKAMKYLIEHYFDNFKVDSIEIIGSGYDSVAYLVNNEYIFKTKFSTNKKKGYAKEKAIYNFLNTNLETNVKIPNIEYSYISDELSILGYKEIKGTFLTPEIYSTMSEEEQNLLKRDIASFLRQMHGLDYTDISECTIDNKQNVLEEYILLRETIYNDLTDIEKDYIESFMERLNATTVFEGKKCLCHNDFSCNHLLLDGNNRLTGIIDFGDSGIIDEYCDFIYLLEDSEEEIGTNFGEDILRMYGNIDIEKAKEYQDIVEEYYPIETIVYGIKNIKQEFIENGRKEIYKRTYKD
Chain of APH(2″) activity of AAC(6′)-APH(2″) (P0A0C1 whole entry): as above
Chain of APH(3′)-IIIa (P0A3Y5 whole entry): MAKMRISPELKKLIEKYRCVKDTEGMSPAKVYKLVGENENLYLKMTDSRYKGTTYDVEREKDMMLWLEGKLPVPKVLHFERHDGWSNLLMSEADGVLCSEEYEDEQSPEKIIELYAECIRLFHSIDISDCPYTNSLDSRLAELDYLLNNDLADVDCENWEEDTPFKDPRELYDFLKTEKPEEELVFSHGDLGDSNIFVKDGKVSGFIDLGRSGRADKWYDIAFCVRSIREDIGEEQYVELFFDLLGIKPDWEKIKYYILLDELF

`NCC1OC(OC2C(N)CC(N)C(O)C2OCC(=O)NCCCNC(=O)COC2C(O)C(N)CC(N)C2OC2OC(CN)C(O)C(O)C2N)C(N)C(O)C1O` (stereo not drawn) [Dimer 4, N,N′-1,3-bis(5-Ethylcarboxyl-neamine)propylamide] was tested, and the “substrate for APH(3′)-IIIa” value [1] was “poor substrates”, the MIC [2] was 31 µM (≈ 24.8 µg/mL) and the “substrate for AAC(6′)-Ii” value [3] was “poor substrates”. The “substrate for AAC(6′) activity of bifunctional enzyme” value (“substrate for AAC(6′) activity” for short) [4] was “poor substrates”, the pKi [5] was 6.10 and the “substrate for APH(2″) activity” value [5] was “not substrates”. The pKd ([6]; for neamine per binding site) was 5.96 and the “affinity for AS-wt relative to neamine” value [6] was “ten-fold greater than neamine”.

`NCC1OC(OC2C(N)CC(N)C(O)C2OCC(=O)NCCCCCNC(=O)COC2C(O)C(N)CC(N)C2OC2OC(CN)C(O)C(O)C2N)C(N)C(O)C1O` (stereo not drawn) [Dimer 6, N,N′-1,3-bis(5-Ethylcarboxyl-neamine)pentylamide] was tested, and the “substrate for APH(3′)-IIIa” value [1] was “poor substrates”, the MIC [2] was 125 µM (≈ 103 µg/mL) and the “substrate for AAC(6′)-Ii” value [3] was “poor substrates”. For the same compound, the “substrate for AAC(6′) activity” value [4] was “poor substrates”, the pKi [5] was 7.00 and the “substrate for APH(2″) activity” value [5] was “not substrates”. For the same compound, the pKd ([6]; for neamine per binding site) was 6.10 and the “affinity for AS-wt relative to neamine” value [6] was “ten-fold greater than neamine”.

With `CN(CCCCN(C)CC(O)COC1C(O)C(N)CC(N)C1OC1OC(CN)C(O)C(O)C1N)CC(O)COC1C(O)C(N)CC(N)C1OC1OC(CN)C(O)C(O)C1N` (stereo not drawn) [Dimer 27] the antibiotic activity [7] was “effective”, the antibiotic activity [8] was “effective” and the antibiotic activity [9] was “effective”. For the same compound, the antibiotic activity [10] was “effective”, the antibiotic activity [11] was “effective” and the “substrate for APH(3′)-IIIa” value [1] was “poor substrates”. The MIC [2] was 6.25 µM (≈ 5.46 µg/mL), the “substrate for AAC(6′)-Ii” value [3] was “poor substrates” and the “substrate for AAC(6′) activity” value [4] was “poor substrates”. For the same compound, the pKi [5] was 6.15, the “substrate for APH(2″) activity” value [5] was “not substrates” and the “effectiveness relative to tobramycin” value [12] was 3 times. The pKd [6] was 7.40.

In the case of `NC[C@H]1O[C@H](O[C@H]2[C@H](O)[C@@H](O)[C@H](N)C[C@@H]2N)[C@H](N)[C@@H](O)[C@@H]1O` [neamine, reference compound], the pKd ([6]; for neamine per binding site) was 5.00.

In the case of “AAC(6′) activity of the bifunctional aminoglycoside modifying-enzyme AAC(6′)-APH(2″) (Staphylococcus aureus)”, the Km [13] was 0.53 µM, the Km [14] was 4.22 µM and the Km [15] was 0.84 µM.

In the case of AAC(6′)-Ii (Enterococcus faecium), the Km [16] was 28.7 µM, the Km [17] was 83.6 µM and the Km [18] was 53.4 µM.

For APH(3′)-IIIa (Enterococcus faecalis), the Km [19] was 1.1 µM, the Km [20] was 2.66 µM and the Km [21] was 0.82 µM.
